Experimental findings from patent US9107410B2, “Pesticidal compositions and processes related thereto” (Dow AgroSciences LLC, priority 2011, dated 2015) are described below.

Assay type in all cases: in vivo
Test [1] concerns Corn Earworm (CEW) (Helicoverpa zea). As to the kind of experiment: Bioassay on corn earworm (CEW), 128-well diet tray assay. The settings on record: 168 h, 50 μg/cm^2 on artificial diet, second instar larvae, 25° C., five to seven days, average of eight wells, read-out: % Mortality CEW 50 μg/cm^2. Here is the method: (§1) Certain molecules disclosed in this document were tested against BAW and CEW using procedures described in the following examples. In the reporting of the results, the “BAW & CEW Rating Table” was used (See Table Section).
Bioassays on CEW (Helicoverpa zea)
Bioassays on CEW were conducted using a 128-well diet tray assay. One to five second instar CEW larvae were placed in each well (3 mL) of the diet tray that had been previously filled with 1 mL of artificial diet to which 50 μg/cm^2 of the test compound (dissolved in 50 μL of 90:10 acetone-water mixture) had been applied (to each of eight wells) and then allowed to dry. Trays were covered with a clear self-adhesive cover, and held at 25° C., 14:10 light-dark for five to seven days. Percent mortality was recorded for the larvae in each well; activity in the eight wells was then averaged. The results are indicated in the table entitled “Table: Bio Results” (See Table Section).

Test [2] concerns Green Peach Aphid (GPA) (Myzus persicae). As to the kind of experiment: Bioassay on green peach aphid (GPA), foliar spray on cabbage seedlings. The settings on record: 72 h, 200 ppm foliar spray on cabbage seedlings, graded after three days, Abbott corrected % control, read-out: % Mortality GPA 200 ppm. The method, then: Certain molecules disclosed in this document were tested against GPA using procedures described in the following example. In the reporting of the results, the “GPA Rating Table” was used (See Table Section).
Cabbage seedlings grown in 3-inch pots, with 2-3 small (3-5 cm) true leaves, were used as test substrate. The seedlings were infested with 20-50 GPA (wingless adult and nymph stages) one day prior to chemical application. Four pots with individual seedlings were used for each treatment. Test compounds (2 mg) were dissolved in 2 mL of acetone/methanol (1:1) solvent, forming stock solutions of 1000 ppm test compound. The stock solutions were diluted 5× with 0.025% Tween 20 in H2O to obtain the solution at 200 ppm test compound. A hand-held aspirator-type sprayer was used for spraying a solution to both sides of […] leaves until runoff. Reference plants (solvent check) were sprayed with the diluent only containing 20% by volume of acetone/methanol (1:1) solvent. Treated plants were held in a holding room for three days at approximately 25° C. and ambient relative humidity (RH) prior to grading. Evaluation was conducted by counting the number of live aphids per plant under a microscope. Percent Control was measured by using Abbott's correction formula (W. S. Abbott, “A Method of Computing the Effectiveness of an Insecticide” J. Econ. Entomol. 18 (1925), pp. 265-267) as follows. Corrected % Control=100*(X−Y)/X • where • X=No. of live aphids on solvent check plants and • Y=No. of live aphids on treated plants

Test [3] concerns Beet Armyworm (BAW) (Spodoptera exigua). As to the kind of experiment: Bioassay on beet armyworm (BAW), 128-well diet tray assay. The settings on record: 168 h, 50 μg/cm^2 on artificial diet, second instar larvae, 25° C., five to seven days, average of eight wells, read-out: % Mortality BAW 50 μg/cm^2. Here is the method: as §1
Bioassays on BAW (Spodoptera exigua)
Bioassays on BAW were conducted using a 128-well diet tray assay. One to five second instar BAW larvae were placed in each well (3 mL) of the diet tray that had been previously filled with 1 mL of artificial diet to which 50 μg/cm^2 of the test compound (dissolved in 50 μL of 90:10 acetone-water mixture) had been applied (to each of eight wells) and then allowed to dry. Trays were covered with a clear self-adhesive cover, and held at 25° C., 14:10 light-dark for five to seven days. Percent mortality was recorded for the larvae in each well; activity in the eight wells was then averaged. The results are indicated in the table entitled “Table: Bio Results” (See Table Section).

Take `FC(F)(F)Oc1ccc(-n2cnc(-c3ccc(C4CC4NC(=S)Nc4ccccc4)cc3)n2)cc1` (centres unmarked) [Compound 1, 1-phenyl-3-(2-{4-[1-(4-trifluoromethoxyphenyl)-1H-[1,2,4]triazol-3-yl]phenyl}cyclopropyl)thiourea]: the mortality at 50 µg/cm2 in test [1] and in test [3] was 50 to 100% throughout. Besides, the mortality at 200 ppm in test [2] was 0%.
Consider `FC(F)(F)Oc1ccc(-n2cnc(-c3ccc(C4CC4NC(=S)Nc4c(Cl)cccc4Cl)cc3)n2)cc1` (centres unmarked) [Compound 2, 1-(2,6-Dichlorophenyl)-3-(2-{4-[1-(4-trifluoromethoxyphenyl)-1H-[1,2,4]triazol-3-yl]phenyl}cyclopropyl)thiourea], for which the mortality at 50 µg/cm2 in test [1] and in test [3] was 50 to 100% throughout. Moreover, the mortality at 200 ppm in test [2] lay within 0 to 80%.
For `COc1ccc(NC(=S)NC2CC2c2ccc(-c3ncn(-c4ccc(OC(F)(F)F)cc4)n3)cc2)c(C)c1` (centres unmarked) [Compound 3, 1-(4-Methoxy-2-methylphenyl)-3-(2-{4-[1-(4-trifluoromethoxyphenyl)-1H-[1,2,4]triazol-3-yl]phenyl}cyclopropyl)thiourea], the mortality at 50 µg/cm2 in test [1] and in test [3] was 50 to 100% throughout. For the same molecule, in test [2], the mortality at 200 ppm is 0 to 80%.
Take `Cc1cc(Cl)ccc1NC(=S)NC1CC1c1ccc(-c2ncn(-c3ccc(OC(F)(F)F)cc3)n2)cc1` (centres unmarked) [Compound 4, 1-(4-Chloro-2-methylphenyl)-3-(2-{4-[1-(4-trifluoromethoxyphenyl)-1H-[1,2,4]triazol-3-yl]phenyl}cyclopropyl)thiourea]: the mortality at 50 µg/cm2 in test [1] and in test [3] was 50 to 100% each time. In addition, in test [2], the mortality at 200 ppm is 0%.
`FC(F)(F)Oc1ccc(-n2cnc(-c3ccc(C4CC4NC(=S)Nc4ccccc4Cl)cc3)n2)cc1` (centres unmarked) [Compound 5, 1-(2-Chlorophenyl)-3-(2-{4-[1-(4-trifluoromethoxyphenyl)-1H-[1,2,4]triazol-3-yl]phenyl}cyclopropyl)thiourea]: the mortality at 50 µg/cm2 in test [1] and in test [3] was 50 to 100% each time. In test [2], the mortality at 200 ppm was 0%.
For the molecule `CCc1cccc(CC)c1NC(=S)NC1CC1c1ccc(-c2ncn(-c3ccc(OC(F)(F)F)cc3)n2)cc1` (centres unmarked) [Compound 6, 1-(2,6-Diethylphenyl)-3-(2-{4-[1-(4-trifluoromethoxyphenyl)-1H-[1,2,4]triazol-3-yl]phenyl}cyclopropyl)thiourea], the mortality at 50 µg/cm2 in test [1] and in test [3] was 50 to 100% each time. For the same molecule, the mortality at 200 ppm in test [2] lay within 0 to 80%.
`CN(C)c1ccc(NC(=S)NC2CC2c2ccc(-c3ncn(-c4ccc(OC(F)(F)F)cc4)n3)cc2)cc1` (centres unmarked) [Compound 7, 1-(4-Dimethylaminophenyl)-3-(2-{4-[1-(4-trifluoromethoxyphenyl)-1H-[1,2,4]triazol-3-yl]phenyl}cyclopropyl)thiourea]: the mortality at 50 µg/cm2 in test [1] and in test [3] was 50 to 100% in each case. Further, the mortality at 200 ppm in test [2] came to 0%.
For `Cc1cccc(C)c1/N=C(/NC1CC1c1ccc(-c2ncn(-c3ccc(OC(F)(F)F)cc3)n2)cc1)SCOC(=O)C(C)C` (centres unmarked) [Compound 15, (Z)-(N′-(2,6-dimethylphenyl)-N-(2-(4-(1-(4-(trifluoromethoxy)phenyl)-1H-1,2,4-triazol-3-yl)phenyl)cyclopropyl)-carbamimidoylthio)methyl isobutyrate], the mortality at 200 ppm in test [2] lay within 0 to 80%.
Consider `Cc1cc(C)c(/N=C(/NC2CC2c2ccc(-c3ncn(-c4ccc(OC(F)(F)F)cc4)n3)cc2)SCOC(=O)C(C)C)c(C)c1` (centres unmarked) [Compound 16, (Z)-(N′-Mesityl-N-(2-(4-(1-(4-(trifluoromethoxy)phenyl)-1H-1,2,4-triazol-3-yl)phenyl)cyclopropyl)carbamimidoylthio)methyl isobutyrate], for which the mortality at 200 ppm in test [2] is 0%.
